ChEMBL document CHEMBL1201862, “PubChem BioAssay data set” (2004)
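Assay format: 96-well plates, 48-hour exposure. At the GI50, growth is halved.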 Active and inactive are the calls of the source. Cut-off read from the data, not from the text of the source: active = GI50 up to about 1.1 µM and inactive = higher.

Assays:
Test in all cases: growth of human tumour cells (NCI), 48 h
NCI-H522 = test system: NCI-H522
OVCAR-8 = test system: OVCAR-8
UO-31 = test system: UO-31
A549 = test system: A549
OVCAR-5 = test system: OVCAR-5
LOX IMVI = test system: LOX IMVI
SF-295 = test system: SF-295
COLO 205 = test system: COLO 205
UACC-257 = test system: UACC-257
XF498 = test system: XF498
HOP-92 = test system: HOP-92
RXF 631 = test system: RXF 631
TK-10 = test system: TK-10
NCI-H460 = test system: NCI-H460
K562 = test system: K562
SK-MEL-2 = test system: SK-MEL-2
HCT-15 = test system: HCT-15
SW-620 = test system: SW-620
OVCAR-3 = test system: OVCAR-3
CCRF-CEM = test system: CCRF-CEM
HOP-62 = test system: HOP-62
M19-MEL = test system: M19-MEL
SNB-19 = test system: SNB-19
HT-29 = test system: HT-29
IGROV-1 = test system: IGROV-1
HCT-116 = test system: HCT-116
RPMI-8226 = test system: RPMI-8226
ACHN = test system: ACHN
SNB-78 = test system: SNB-78
SN12C = test system: SN12C
SK-MEL-28 = test system: SK-MEL-28
KM-20L2 = test system: KM-20L2
KM12 = test system: KM12
U-251 = test system: U-251
UACC-62 = test system: UACC-62
SR = test system: SR
DLD-1 = test system: DLD-1
NCI-H23 = test system: NCI-H23
786-0 = test system: 786-0
HL-60 = test system: HL-60
LXFL 529 = test system: LXFL 529
Malme-3M = test system: Malme-3M
DMS-273 = test system: DMS-273
EKVX = test system: EKVX
M14 = test system: M14
HOP-18 = test system: HOP-18
SK-OV-3 = test system: SK-OV-3
SF-268 = test system: SF-268
HCC 2998 = test system: HCC 2998
CAKI-1 = test system: CAKI-1
SF-539 = test system: SF-539
OVCAR-4 = test system: OVCAR-4
MOLT-4 = test system: MOLT-4
RXF 393 = test system: RXF 393
DMS-114 = test system: DMS-114
SK-MEL-5 = test system: SK-MEL-5
A498 = test system: A498
SNB-75 = test system: SNB-75
NCI-H226 = test system: NCI-H226

Measured: GI50

Cc1nc(NC(=S)NC(=O)c2ccc(Cl)c(Cl)c2)sc1C(=O)/C=C/c1ccccc1[N+](=O)[O-]
20.4 µM: HCT-15
active: HOP-92 0.989 µM
inactive: NCI-H522 16.9 µM | OVCAR-8 28.1 µM | UO-31 20.8 µM | A549 25.3 µM | OVCAR-5 > 10 µM | LOX IMVI 16.6 µM | SF-295 24.2 µM | COLO 205 18.4 µM | UACC-257 30.1 µM | XF498 20.6 µM | RXF 631 24.1 µM | TK-10 36.1 µM | NCI-H460 28.9 µM | K562 18.2 µM | SK-MEL-2 18.4 µM | SW-620 20.2 µM | OVCAR-3 22.1 µM | CCRF-CEM 22.4 µM | HOP-62 21.2 µM | M19-MEL 26.8 µM | SNB-19 21.1 µM | HT-29 21.3 µM | IGROV-1 24.5 µM | HCT-116 20.7 µM | RPMI-8226 24.2 µM | ACHN 24.4 µM | SNB-78 30.1 µM | SN12C 21.6 µM | SK-MEL-28 25.4 µM | KM-20L2 18.6 µM | KM12 18.7 µM | U-251 17.9 µM | UACC-62 10.9 µM | SR 24.5 µM | DLD-1 48.9 µM | NCI-H23 20.9 µM | 786-0 17.8 µM | HL-60 19.1 µM | LXFL 529 21.6 µM | Malme-3M 18.5 µM | DMS-273 20.9 µM | EKVX 32.7 µM | M14 23.8 µM | HOP-18 12.4 µM | SK-OV-3 15.6 µM | SF-268 39.4 µM | HCC 2998 33.3 µM | CAKI-1 21.1 µM | SF-539 19 µM | OVCAR-4 26.8 µM | MOLT-4 19.8 µM | RXF 393 19.4 µM

COc1ccc(C(Cc2cc(OC)c(OC)c(OC)c2)C(=O)O)cc1 (stereo unspecified)
inactive: OVCAR-8 > 100 µM | UO-31 72.3 µM | A549 60 µM | OVCAR-5 > 100 µM | LOX IMVI > 100 µM | SF-295 26.1 µM | COLO 205 > 100 µM | UACC-257 54.3 µM | XF498 40.5 µM | DMS-114 41 µM | SK-MEL-5 25.9 µM | RXF 631 > 100 µM | TK-10 > 100 µM | NCI-H460 45.7 µM | A498 56.5 µM | K562 40.4 µM | SK-MEL-2 52 µM | SW-620 46.9 µM | OVCAR-3 24.3 µM | CCRF-CEM 46 µM | HOP-62 > 100 µM | M19-MEL 45.7 µM | SNB-19 62.7 µM | HT-29 37.6 µM | SNB-75 22.8 µM | IGROV-1 76.2 µM | HCT-116 41.5 µM | RPMI-8226 55.8 µM | ACHN > 100 µM | SNB-78 60.1 µM | SN12C > 100 µM | SK-MEL-28 56.6 µM | KM-20L2 56 µM | KM12 41.8 µM | U-251 > 100 µM | UACC-62 31.2 µM | DLD-1 51.1 µM | NCI-H23 97.9 µM | 786-0 71.8 µM | Malme-3M 74 µM | DMS-273 52.5 µM | EKVX 63 µM | M14 44.6 µM | HOP-18 > 100 µM | NCI-H226 13.6 µM | SK-OV-3 52.6 µM | SF-268 81.8 µM | HCC 2998 > 100 µM | CAKI-1 64.1 µM | SF-539 42.6 µM | OVCAR-4 > 100 µM
43.5 µM: HCT-15
